From US20030144233A1, “Conformation-activity relationship of apoptosis-inducing phosphodiester oligonucleotides” (priority 2001, published 2003)

Tested on: Human Jurkat T cell leukemia cells
Assay: Analysis of apoptosis by Annexin V FITC / propidium iodide staining and flow cytometry
Type: cell-based
Conditions: for % apoptosis / Apoptosis (%): Jurkat T cells, oligonucleotides at final concentration of 53 μM; for Apoptosis (%): Table 1
Method: Human Jurkat T cell leukemia cells were obtained from the American Type Culture Collection (Rockville, Md.). The Jurkat T cells were maintained RPMI 1640 medium, supplemented with 10% heat-inactivated (56° C., 30 min) fetal bovine serum (all from Sigma Aldrich, Canada) in an atmosphere of 5% CO2 at 37° C. Cells were seeded at 2×10^5 cells/ml medium in 6-well float-bottomed tissue culture plates and incubated with oligonucleotides at a final concentration of 53 μM.
Apoptosis was measured by staining cells with Annexin V FITC and propidium iodide (PI) (BD Pharmingen, San Diego, Calif. USA) according to the manufacturer's instructions. Flow Cytometry (FCM) determined cellular fluorescence. The FCM and data analysis were carried out using a FACSCalibur instrument (excitation 488 nm, emission 530 nm for Annexin-V and 580 nm for PI) using the program CELLQuest.

Row | Sequence | % apoptosis (Table 3) [%] | Apoptosis (%) | also measured
1 | GGTTGG | 66 |  | 
2 | TCGTTC |  | 9.5 | 
3 | TGTGTG | 66 |  | 
4 | CCGTCC |  | 5 | 
5 | CTGTCT |  | 14 | 
6 | GGGAG |  |  | ACTUAL % OF CELLS IN APOPTOSIS (new sequences tested in vitro after prediction, Table 4): 73%
7 | GGGCGG |  | 17 | 
8 | GGAAGG | 59 |  | 
9 | GGGTGG | 50 |  | apoptosis-inducing activity (phosphodiester versus phosphorothioate backbone): 50%
10 | AAGTAA |  |  | % apoptosis (Table 2): 23%
11 | GGGGGG |  | 4 | 
12 | GGCCGG |  |  | % apoptosis (Table 2): 21%
13 | ATGTAT |  |  | % apoptosis (Table 2): 37%
14 | GTGTGT | 67 |  | 
15 | TGGTTG | 69 |  | 
